Experimental data from ChEMBL document CHEMBL1201862, “PubChem BioAssay data set” (2004).
The source made the active and inactive calls.

Assays:
[1] = molecular target: T1, Lysine-specific demethylase 4C (Homo sapiens, UniProt Q9H3R0); experiment: GASC-1 (JMJD2C) histone demethylase inhibitors, dose response, biochemical, DELFIA europium, cherry-picked samples (AID 488835); assay type: functional
T1 sequence (Q9H3R0 whole entry): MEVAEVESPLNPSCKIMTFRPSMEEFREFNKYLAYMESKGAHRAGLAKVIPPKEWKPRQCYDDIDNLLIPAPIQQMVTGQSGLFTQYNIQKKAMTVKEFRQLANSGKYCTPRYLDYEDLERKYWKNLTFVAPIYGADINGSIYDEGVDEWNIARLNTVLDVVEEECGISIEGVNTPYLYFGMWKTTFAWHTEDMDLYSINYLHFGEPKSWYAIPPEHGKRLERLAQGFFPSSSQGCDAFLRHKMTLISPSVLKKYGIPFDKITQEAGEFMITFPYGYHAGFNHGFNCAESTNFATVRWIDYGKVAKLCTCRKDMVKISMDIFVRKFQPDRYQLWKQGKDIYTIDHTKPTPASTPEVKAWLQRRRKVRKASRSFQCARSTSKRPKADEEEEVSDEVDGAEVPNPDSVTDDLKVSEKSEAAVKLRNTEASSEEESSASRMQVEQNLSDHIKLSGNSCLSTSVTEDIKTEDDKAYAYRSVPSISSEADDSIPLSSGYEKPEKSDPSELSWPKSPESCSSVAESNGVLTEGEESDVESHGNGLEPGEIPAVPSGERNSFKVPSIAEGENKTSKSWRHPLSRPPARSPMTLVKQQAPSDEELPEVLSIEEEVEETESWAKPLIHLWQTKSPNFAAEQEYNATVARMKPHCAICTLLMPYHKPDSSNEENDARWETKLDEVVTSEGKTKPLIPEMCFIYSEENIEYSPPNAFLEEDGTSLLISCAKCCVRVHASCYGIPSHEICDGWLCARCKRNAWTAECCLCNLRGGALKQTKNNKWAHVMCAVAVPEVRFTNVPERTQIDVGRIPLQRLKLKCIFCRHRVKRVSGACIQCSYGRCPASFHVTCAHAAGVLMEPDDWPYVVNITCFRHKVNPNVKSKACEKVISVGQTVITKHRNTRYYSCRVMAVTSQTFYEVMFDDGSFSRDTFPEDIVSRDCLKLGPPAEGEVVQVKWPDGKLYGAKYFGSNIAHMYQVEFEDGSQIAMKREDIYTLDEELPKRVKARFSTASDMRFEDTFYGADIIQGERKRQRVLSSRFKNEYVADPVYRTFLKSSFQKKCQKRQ

[2] = system: Escherichia coli; experiment: microbe, parasite or virus in culture
[3] = molecular target: Peroxisome proliferator-activated receptor gamma/Nuclear receptor coactivator 2 (Homo sapiens, UniProt P37231); experiment: TR-FRET dose response biochemical High Throughput Screening assay for agonists of the steroid receptor coactivator 2 (SRC-2) recruitment by the peroxisome proliferator-activated receptor gamma (PPAR gamma): non-selective agonists. [Related pubchem assays: 1297, 1032 ]; assay type: functional
[4] = molecular target: Peroxisome proliferator-activated receptor gamma/Nuclear receptor coactivator 1 (Homo sapiens, UniProt P37231); experiment: TR-FRET dose response biochemical High Throughput Screening assay for agonists of the steroid receptor coactivator 1 (SRC-1) recruitment by the peroxisome proliferator-activated receptor gamma (PPAR gamma): non-selective agonists. [Related pubchem assays (depositor defined):AID1300, AID1808, AID504735, AID631]; assay type: protein assay
Chain of Peroxisome proliferator-activated receptor gamma/Nuclear receptor coactivator 1 (P37231 whole entry): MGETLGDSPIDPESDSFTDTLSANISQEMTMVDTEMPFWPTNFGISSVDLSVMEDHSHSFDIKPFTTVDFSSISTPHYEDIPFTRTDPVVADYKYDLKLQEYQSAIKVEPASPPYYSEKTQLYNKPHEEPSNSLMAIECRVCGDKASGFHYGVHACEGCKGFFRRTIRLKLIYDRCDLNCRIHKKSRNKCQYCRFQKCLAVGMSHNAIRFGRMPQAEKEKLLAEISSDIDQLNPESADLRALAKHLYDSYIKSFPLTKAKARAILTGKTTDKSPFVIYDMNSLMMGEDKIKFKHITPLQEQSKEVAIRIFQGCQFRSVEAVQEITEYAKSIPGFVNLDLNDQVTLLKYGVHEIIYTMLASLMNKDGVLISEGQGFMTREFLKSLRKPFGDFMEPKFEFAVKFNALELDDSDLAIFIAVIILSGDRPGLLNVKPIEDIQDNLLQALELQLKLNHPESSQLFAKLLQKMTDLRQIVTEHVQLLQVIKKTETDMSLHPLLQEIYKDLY
Chain of Peroxisome proliferator-activated receptor gamma/Nuclear receptor coactivator 1 (Q15788 whole entry, further chain): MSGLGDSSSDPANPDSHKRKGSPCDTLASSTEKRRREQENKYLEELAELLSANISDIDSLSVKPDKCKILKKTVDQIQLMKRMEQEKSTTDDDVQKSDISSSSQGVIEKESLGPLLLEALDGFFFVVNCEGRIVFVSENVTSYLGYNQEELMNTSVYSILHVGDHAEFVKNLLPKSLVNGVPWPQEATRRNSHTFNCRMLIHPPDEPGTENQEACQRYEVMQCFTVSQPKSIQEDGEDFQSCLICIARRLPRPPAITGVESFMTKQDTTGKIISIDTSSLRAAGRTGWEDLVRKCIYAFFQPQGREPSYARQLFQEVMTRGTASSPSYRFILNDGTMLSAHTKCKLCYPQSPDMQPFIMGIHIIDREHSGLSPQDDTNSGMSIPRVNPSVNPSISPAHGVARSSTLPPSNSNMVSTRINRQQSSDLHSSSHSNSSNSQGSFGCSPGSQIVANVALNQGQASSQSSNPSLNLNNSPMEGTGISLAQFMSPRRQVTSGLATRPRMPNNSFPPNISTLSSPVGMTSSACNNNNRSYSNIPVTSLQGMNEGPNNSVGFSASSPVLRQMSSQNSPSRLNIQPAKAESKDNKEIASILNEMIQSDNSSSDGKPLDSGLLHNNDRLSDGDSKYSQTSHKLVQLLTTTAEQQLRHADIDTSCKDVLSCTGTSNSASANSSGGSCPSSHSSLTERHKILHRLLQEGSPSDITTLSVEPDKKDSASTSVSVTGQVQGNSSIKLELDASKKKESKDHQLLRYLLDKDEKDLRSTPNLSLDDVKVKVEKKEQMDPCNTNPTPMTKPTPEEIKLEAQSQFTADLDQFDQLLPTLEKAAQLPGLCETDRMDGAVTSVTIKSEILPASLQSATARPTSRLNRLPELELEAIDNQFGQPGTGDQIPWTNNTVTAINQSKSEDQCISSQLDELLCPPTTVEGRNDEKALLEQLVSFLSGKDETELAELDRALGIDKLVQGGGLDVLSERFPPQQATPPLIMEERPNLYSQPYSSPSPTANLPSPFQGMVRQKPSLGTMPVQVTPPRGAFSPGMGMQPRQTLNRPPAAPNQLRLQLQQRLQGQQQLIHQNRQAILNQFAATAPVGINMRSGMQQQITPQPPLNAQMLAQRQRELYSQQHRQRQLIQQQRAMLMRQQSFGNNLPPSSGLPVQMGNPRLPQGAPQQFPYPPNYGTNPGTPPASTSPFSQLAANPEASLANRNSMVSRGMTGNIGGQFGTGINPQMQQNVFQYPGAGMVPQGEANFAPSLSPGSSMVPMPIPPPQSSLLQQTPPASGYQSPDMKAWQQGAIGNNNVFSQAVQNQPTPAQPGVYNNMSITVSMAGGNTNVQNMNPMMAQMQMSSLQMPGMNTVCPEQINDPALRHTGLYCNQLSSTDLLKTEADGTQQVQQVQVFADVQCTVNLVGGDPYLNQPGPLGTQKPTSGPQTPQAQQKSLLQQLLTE

[5] = molecular target: Peroxisome proliferator-activated receptor gamma/Nuclear receptor coactivator 3 (Homo sapiens, UniProt P37231); experiment: TR-FRET dose response biochemical High Throughput Screening assay for agonists of the steroid receptor coactivator 3 (SRC-3) recruitment by the peroxisome proliferator-activated receptor gamma (PPAR gamma): non-selective agonists. [Related pubchem assays: 1301 (Confirmation screen.), 1048 (Primary screen.)]; assay type: functional
Chain of Peroxisome proliferator-activated receptor gamma/Nuclear receptor coactivator 3 (P37231 whole entry): as the sequence (P37231 whole entry) above
Chain of Peroxisome proliferator-activated receptor gamma/Nuclear receptor coactivator 3 (Q9Y6Q9 whole entry, further chain): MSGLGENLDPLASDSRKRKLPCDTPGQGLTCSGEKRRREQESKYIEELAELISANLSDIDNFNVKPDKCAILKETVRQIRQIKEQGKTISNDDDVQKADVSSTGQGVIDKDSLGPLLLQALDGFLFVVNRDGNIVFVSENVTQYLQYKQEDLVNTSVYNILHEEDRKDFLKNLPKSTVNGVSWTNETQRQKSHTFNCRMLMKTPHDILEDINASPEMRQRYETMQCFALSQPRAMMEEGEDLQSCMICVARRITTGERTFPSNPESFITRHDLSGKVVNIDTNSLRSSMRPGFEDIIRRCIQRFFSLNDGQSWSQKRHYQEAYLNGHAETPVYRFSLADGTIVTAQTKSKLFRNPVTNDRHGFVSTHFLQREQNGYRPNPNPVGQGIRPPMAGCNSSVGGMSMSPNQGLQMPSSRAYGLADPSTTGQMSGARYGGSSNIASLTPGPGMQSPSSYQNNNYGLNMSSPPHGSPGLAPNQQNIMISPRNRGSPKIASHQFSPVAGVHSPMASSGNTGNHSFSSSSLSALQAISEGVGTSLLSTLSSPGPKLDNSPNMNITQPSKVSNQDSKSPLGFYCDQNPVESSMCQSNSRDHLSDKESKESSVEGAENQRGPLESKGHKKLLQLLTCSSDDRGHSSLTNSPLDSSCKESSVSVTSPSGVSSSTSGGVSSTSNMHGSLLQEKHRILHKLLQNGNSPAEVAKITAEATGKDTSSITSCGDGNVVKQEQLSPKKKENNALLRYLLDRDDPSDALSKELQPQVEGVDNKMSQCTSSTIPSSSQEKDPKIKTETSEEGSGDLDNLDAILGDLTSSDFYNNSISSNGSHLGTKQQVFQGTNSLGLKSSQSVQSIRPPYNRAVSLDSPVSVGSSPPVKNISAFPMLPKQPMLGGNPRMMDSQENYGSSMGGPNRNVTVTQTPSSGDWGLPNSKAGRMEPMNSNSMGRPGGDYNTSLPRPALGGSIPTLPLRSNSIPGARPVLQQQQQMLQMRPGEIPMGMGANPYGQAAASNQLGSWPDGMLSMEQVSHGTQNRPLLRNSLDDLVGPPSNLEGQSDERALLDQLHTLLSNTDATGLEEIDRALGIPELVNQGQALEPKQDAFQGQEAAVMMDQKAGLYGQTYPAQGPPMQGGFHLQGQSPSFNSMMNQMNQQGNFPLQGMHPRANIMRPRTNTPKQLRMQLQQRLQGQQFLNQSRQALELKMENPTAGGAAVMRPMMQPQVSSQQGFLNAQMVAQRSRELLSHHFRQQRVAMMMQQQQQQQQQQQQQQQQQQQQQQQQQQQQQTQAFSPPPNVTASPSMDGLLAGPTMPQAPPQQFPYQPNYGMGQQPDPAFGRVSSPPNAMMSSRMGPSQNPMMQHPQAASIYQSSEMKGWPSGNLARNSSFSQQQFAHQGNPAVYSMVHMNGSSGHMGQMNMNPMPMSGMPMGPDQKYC

[6] = system: HEK293; experiment: NOD2 signaling inhibitors in MDP-stimulated cells, cell-based, uHTS, luminescence (AID 2001); assay type: functional; conditions: Homo sapiens
[7] = control 3'UTR Renilla luciferase suppression, dose response, counter-screen for Shn3 inhibitor project, cell-based, Clone20-Shn3RL, cherry-picked (AID 624133); assay type: functional
[8] = system: HEK293; experiment: cells; assay type: functional, cell-based; conditions: Homo sapiens
[9] = molecular target: T2, Calpain-2 catalytic subunit (Sus scrofa, UniProt P43367); experiment: pig calpain II inhibitor potency, dose response, biochemical, fluorogenic peptide substrate (AID 1420); assay type: functional
T2 sequence (P43367 whole entry): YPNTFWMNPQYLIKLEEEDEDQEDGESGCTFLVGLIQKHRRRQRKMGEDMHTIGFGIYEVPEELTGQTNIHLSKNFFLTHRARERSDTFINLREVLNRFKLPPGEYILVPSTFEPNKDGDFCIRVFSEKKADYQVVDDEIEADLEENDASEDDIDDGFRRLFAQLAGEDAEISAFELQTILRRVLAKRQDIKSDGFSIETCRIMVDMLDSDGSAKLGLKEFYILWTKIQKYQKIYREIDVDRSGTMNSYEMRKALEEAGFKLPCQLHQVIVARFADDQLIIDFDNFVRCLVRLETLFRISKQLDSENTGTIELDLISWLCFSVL

[10] = system: HEK293; experiment: cells; assay type: functional, cell-based; conditions: Homo sapiens; remark: listed apart in the source
[11] = system: HEK293; experiment: NOD1 signaling inhibitors, primary screen, cell-based, luminescence, uHTS (AID 1578); assay type: functional; conditions: Homo sapiens
[12] = HepG2 cell cytotoxicity, dose response, cytotoxicity control for Shn3 inhibitor project, CellTiter-Glo, cherry-picked (AID 624134); assay type: functional, cell-based
[13] = Shn3 3'UTR reporter inhibitors, dose response, cell-based, Clone20 osteoblasts, firefly luciferase, cherry-picked (AID 624132); assay type: functional;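 note: firefly luciferase luminescence from reporter carrying the Shn3 3'UTR in osteoblasts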
[14] = molecular target: T3, Microphthalmia-associated transcription factor (Homo sapiens, UniProt O75030); experiment: TRPM1 promoter luciferase signal decrease, dose response, MITF inhibitor project, cell-based, SK-MEL-5, cherry-picked, set 3 (AID 493073); assay type: functional
T3 sequence (O75030 whole entry): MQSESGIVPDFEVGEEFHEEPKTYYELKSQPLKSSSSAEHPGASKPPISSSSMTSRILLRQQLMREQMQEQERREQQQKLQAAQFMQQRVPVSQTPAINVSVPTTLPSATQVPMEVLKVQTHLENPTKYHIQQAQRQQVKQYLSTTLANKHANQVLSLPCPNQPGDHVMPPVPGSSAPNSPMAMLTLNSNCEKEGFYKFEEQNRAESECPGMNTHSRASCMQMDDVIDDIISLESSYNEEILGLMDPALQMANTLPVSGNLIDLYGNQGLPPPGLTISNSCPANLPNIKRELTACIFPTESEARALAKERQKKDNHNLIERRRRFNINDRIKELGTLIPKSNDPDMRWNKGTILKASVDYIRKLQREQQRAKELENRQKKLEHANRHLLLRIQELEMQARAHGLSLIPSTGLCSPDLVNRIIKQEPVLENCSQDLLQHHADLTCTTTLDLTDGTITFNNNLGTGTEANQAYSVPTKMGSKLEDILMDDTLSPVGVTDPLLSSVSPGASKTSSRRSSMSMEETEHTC

[15] = system: A-375; experiment: MITF: Counter assay: A375 proliferation Measured in Cell-Based System Using Plate Reader - 2084-03_Inhibitor_Dose_DryPowder_Activity. [Related pubchem assays (depositor defined):AID488944]; assay type: functional; conditions: Homo sapiens
[16] = molecular target: Cytochrome P450 2C19 (Homo sapiens, UniProt P33261); experiment: Cytochrome panel assay with activity outcomes. Panel member name: p450-cyp2c19 Compounds with AC50 equal or less than 10 uM are considered active; assay type: functional; conditions: read-out: AC50
Chain of Cytochrome P450 2C19 (P33261 whole entry): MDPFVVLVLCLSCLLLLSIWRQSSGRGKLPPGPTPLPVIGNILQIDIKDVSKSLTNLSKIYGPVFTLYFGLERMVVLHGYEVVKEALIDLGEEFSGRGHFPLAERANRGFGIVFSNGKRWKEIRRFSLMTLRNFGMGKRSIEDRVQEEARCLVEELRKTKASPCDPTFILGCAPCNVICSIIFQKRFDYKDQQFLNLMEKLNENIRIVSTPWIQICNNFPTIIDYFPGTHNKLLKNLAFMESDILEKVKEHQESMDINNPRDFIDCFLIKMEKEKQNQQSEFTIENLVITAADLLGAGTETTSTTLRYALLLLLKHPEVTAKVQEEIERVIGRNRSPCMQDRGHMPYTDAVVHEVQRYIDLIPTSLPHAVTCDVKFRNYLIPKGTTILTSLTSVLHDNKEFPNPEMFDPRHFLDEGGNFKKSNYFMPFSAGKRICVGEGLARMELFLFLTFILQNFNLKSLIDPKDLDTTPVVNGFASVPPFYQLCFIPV

[17] = molecular target: Cytochrome P450 3A4 (Homo sapiens, UniProt P08684);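 note: CYP3A4 tested as one member of a cytochrome P450 panel screen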
Chain of Cytochrome P450 3A4 (P08684 whole entry): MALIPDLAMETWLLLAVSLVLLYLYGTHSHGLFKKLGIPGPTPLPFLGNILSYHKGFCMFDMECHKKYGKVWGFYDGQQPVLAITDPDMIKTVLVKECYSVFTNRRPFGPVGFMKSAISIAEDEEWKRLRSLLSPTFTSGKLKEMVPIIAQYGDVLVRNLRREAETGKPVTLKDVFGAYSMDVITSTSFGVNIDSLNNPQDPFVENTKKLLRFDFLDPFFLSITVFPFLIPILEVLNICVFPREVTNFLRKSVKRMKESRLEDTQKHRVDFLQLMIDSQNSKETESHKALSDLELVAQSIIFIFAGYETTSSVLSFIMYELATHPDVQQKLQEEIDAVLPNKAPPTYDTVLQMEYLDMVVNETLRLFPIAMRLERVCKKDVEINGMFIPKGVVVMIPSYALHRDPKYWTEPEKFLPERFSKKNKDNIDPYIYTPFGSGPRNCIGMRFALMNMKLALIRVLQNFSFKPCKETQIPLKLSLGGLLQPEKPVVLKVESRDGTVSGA

[18] = molecular target: T4, Coagulation factor XII (Homo sapiens, UniProt P00748); assay type: functional;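 note: activated factor XIIa alpha cleaving a fluorogenic AMC peptide substrate; inhibitor potency from loss of enzyme activity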
T4 sequence (P00748 whole entry): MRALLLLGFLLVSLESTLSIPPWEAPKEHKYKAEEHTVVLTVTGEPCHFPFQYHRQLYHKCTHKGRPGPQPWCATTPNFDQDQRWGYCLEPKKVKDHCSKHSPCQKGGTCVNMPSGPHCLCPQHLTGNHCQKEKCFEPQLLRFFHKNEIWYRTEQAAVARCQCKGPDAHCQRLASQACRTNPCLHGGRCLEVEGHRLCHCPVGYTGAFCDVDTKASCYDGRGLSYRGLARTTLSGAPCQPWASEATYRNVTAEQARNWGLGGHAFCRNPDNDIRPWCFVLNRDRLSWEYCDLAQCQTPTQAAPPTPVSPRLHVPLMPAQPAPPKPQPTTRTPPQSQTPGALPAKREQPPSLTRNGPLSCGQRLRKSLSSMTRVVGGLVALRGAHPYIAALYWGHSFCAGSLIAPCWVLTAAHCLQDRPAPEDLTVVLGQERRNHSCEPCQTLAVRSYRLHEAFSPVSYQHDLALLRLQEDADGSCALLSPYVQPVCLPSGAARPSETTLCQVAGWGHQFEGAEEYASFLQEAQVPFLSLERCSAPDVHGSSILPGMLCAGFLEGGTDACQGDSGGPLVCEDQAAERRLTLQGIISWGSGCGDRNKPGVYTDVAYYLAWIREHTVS

[19] = molecular target: T5, Cytochrome P450 1A2 (Homo sapiens, UniProt P05177);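 note: PubChem cytochrome P450 panel assay, CYP1A2 panel member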
T5 sequence (P05177 whole entry): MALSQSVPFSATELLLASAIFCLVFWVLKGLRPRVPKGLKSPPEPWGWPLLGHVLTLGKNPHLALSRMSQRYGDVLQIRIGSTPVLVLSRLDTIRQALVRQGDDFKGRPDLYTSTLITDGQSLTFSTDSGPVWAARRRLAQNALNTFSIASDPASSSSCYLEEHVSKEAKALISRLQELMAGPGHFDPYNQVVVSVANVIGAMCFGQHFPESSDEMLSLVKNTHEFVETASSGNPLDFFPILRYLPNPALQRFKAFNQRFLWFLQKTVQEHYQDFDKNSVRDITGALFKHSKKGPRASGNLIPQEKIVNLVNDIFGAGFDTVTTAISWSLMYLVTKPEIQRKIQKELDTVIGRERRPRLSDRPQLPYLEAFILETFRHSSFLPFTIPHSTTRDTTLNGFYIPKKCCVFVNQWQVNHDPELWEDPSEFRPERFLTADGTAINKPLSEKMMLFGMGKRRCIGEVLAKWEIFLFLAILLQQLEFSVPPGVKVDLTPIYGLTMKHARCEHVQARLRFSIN

[20] = cells; assay type: functional, cell-based
[21] = molecular target: SUMO-activating enzyme (Homo sapiens, UniProt Q9UBT2); experiment: SUMOylation inhibitor hit validation, confirmation, SUMOylation inhibitor project, biochemical, AlphaScreen (AID 2018); assay type: functional
[22] = cytotoxicity in HEK-293T cells, dose response, cytotoxicity control for BCR NF-kB inhibitor project, luminescence, B-cell screen hits (AID 489021); assay type: functional, cell-based;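 note: HEK-293T cells carrying an NF-kB luciferase reporter; cells exposed to compound for about 14 hours before viability readout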

## COC(=O)[C@@H](N)Cc1ccc(O)c(O)c1
[1]
  AC50: 11.5 µM (active)

## O=C(CN(Cc1ccco1)C(=O)c1ccccc1F)Nc1ccccc1C(F)(F)F
[2]
  AC50: 103 µM (active)

## O=C(Nc1ccc(S(=O)(=O)Nc2ncccn2)cc1)c1ccc(Br)s1
[3]
  EC50: > 79.4 µM (not active)
[4]
  EC50: > 79.4 µM (inactive)
[5]
  EC50: > 79.4 µM (not active)

## CC(C)Cn1c(N)c(C(=O)COC(=O)CC23CC4CC(CC(C4)C2)C3)c(=O)n(C)c1=O
[6]
  IC50: 3.31 µM (active)
[7]
  AC50: 0.435 µM (active)
[8]
  IC50: 2.31 µM (active)
[9]
  IC50: 5.92 µM (not active)
[10]
  IC50: 6.35 µM (active)
[11]
  EC50: 3.06 µM (active)
[12]
  AC50: 1.7 µM (active)
[13]
  AC50: 1.51 µM (active)

## CCN1CCN(C2=C(NS(=O)(=O)c3ccc(C)cc3)C(=O)c3ccccc3C2=O)CC1
[14]
  AC50: 4.18 µM (active)
[15]
  AC50: 36.6 µM (active)

## Cc1cc(NC(=O)CSc2nc3ccsc3c(=O)n2CCCCC(=O)O)no1
[16]
  AC50: 3.98 µM (inconclusive)
[17]
  AC50: inconclusive

## CCn1c(=O)cc(SCC(=O)NCc2ccc3c(c2)OCO3)c2ccccc21
[3]
  EC50: > 79.4 µM (not active)
[4]
  EC50: > 79.4 µM (inactive)
[5]
  EC50: > 79.4 µM (not active)

## Cc1cc(NC(=O)CCN2C(=O)/C(=C/c3ccccc3F)SC2=S)no1
[18]
  IC50: > 50 µM (inactive)

## Cc1ccc2nc(SCc3nnc(-c4ccccc4[N+](=O)[O-])o3)c(C#N)cc2c1
[17]
  AC50: inconclusive
[19]
  AC50: 1.58 µM (inconclusive)

## COc1ccc(-c2csc(NNC3=NCCCCC3)n2)cc1
[1]
  AC50: 7.08 µM (active)
[20]
  EC50: > 350 µM (not active)

## COc1cccc(OC)c1C(=O)Nc1nnc(-c2cccs2)s1
[3]
  EC50: 22 µM (not active)
[4]
  EC50: 17.7 µM (inactive)
[5]
  EC50: > 79.4 µM (not active)

## COCCCNC(=O)C1CCN(C(=O)Nc2ccc(Cl)cc2)CC1
[1]
  AC50: 44.8 µM (active)

## O=C(CCNC(=O)c1ccc([N+](=O)[O-])cc1)Nc1cccc(S(=O)(=O)N2CCCCCC2)c1
[2]
  AC50: 57 µM (active)

## CO[C@@]12[C@@H]3N[C@@H]3CN1C1=C(C(=O)C(N)=C(C)C1=O)[C@@H]2COC(N)=O
[2]
  AC50: 0.496 µM (active)

## CCc1nn(CC(=O)NC(C)CCc2ccccc2)c(=O)c2cc3cc(F)ccc3n12 (configuration not stated)
[21]
  IC50: 45.3 µM (active)

## CCn1c(=O)cc(SCC(=O)N2CCC3(CC2)OCCO3)c2ccccc21
[22]
  IC50: > 80 µM (inactive)
[3]
  EC50: > 79.4 µM (not active)
[4]
  EC50: > 79.4 µM (inactive)
[5]
  EC50: > 79.4 µM (not active)

## CCc1cccc(CC)c1N(COC)C(=O)Cn1c(CO)nc2ccccc21
[18]
  IC50: > 50 µM (inactive)
